Experimental data reported in patent publication US20190290656A1, “PT(IV) PRODRUGS” (YISSUM RESEARCH DEVELOPMENT COMPANY OF THE HEBREW …, priority 2015, published 2019).
Where two headings read alike, the source gives them in different places.

How the values were obtained:
[1] = system: Lewis lung carcinoma (LLC); assay: In vivo efficacy study, Lewis lung carcinoma mouse model; design: species or system C57BL mice
Description: A preliminary in vivo efficacy study was carried out on a mouse model (see Table 3 below):
Lewis lung carcinoma (LLC) was implanted i.m. (2·10^6 cells inoculum) into the right hind leg of 8-week old inbred C57BL mice (24±3 g body weight). Chemotherapy was delayed until the tumor became visible (day 7).

MCF-7 cells [2] = assay: MTT cytotoxicity assay, MCF-7; type: cell-based, human; conditions: for times more effective/potent than cisplatin: MCF-7; for IC50: MCF-7, 72 h exposure, MTT, read-out: IC50 (median growth inhibitory concentration)
Description: (§1) Cisplatin (CDDP) and oxaliplatin (OXP) were dissolved just before the experiment in a 0.9% NaCl solution.
(§2) Human prostate adenocarcinoma (PC3) cells were obtained from European Collection of Cell Cultures (ECACC, Salisbury, UK). Human ovarian cancer cell lines A2780 and its cisplatin resistant variant, A2780cisR, were kindly provided by Prof.
(§3) Triplicate cultures were established for each treatment.

A2780cisR cells = assay: MTT cytotoxicity assay, A2780cisR (cisplatin resistant); type: cell-based, human; conditions: for IC50: 72 h exposure, MTT, read-out: IC50 (median growth inhibitory concentration)
Description: (§4) Platinum(IV) complexes were dissolved in DMSO to stock solutions of 1 mg/mL just before the experiment, and a calculated amount of drug solution was added to the cell growth medium to a final solvent concentration of 0.5%, which had no discernible effect on cell killing. Cisplatin (CDDP) and oxaliplatin (OXP) were dissolved just before the experiment in a 0.9% NaCl solution.
as §2
(§5) Cancer Res. 1988, 48, 589-601]. […] Triplicate cultures were established for each treatment.

BxPC3 cells = assay: MTT cytotoxicity assay, BxPC3; type: cell-based, human; conditions: for times more effective/potent than cisplatin: BxPC3; for IC50: BxPC3, 72 h exposure, MTT, read-out: IC50 (median growth inhibitory concentration)
[3] = system: Histone deacetylase (HDAC); assay: Histone deacetylase assay (Fluor-de-Lys) in MCF-7 cells; type: cell-based, human; conditions: for IC50 for cellular inhibition of HDAC activity (in words): MCF-7, 24 h, increasing concentrations; for inhibition of HDAC activity: MCF-7, 24 h incubation with IC50 concentrations
Description: Histone deacetylase activity was determined using Fluor-de-Lys® HDAC fluorometric activity assay kit (Enzo Life Sciences International, Inc., Plymount Meeting, Pa., U.S.A.). […] Fluorescence was measured using a Fluoroskan Ascent FL (Labsystem, Finland) plate reader, with excitation at 360 nm and emission at 460 nm. For comparison purpose, the HDAC activity was also measured in nuclear extracts of MCF-7-treated cells by means of the same fluorometric activity assay kit. In this latter case, MCF-7 nuclear extracts were obtained as follow: cell pellets were re-suspended in lysis buffer [Tris.HCl (10 mM, pH 8.0), KCl (60 mM), EDTA (1.2 mM), DTT (1 mM), PMSF (0.05 mM), NP-40 (0.05%)] and kept on ice for 10 min. Subsequently, samples were centrifuged at 1000 g and re-suspended in the nuclear extraction buffer [Tris.HCl (20 mM, (pH 8.0), NaCl (420 mM), MgCl2 (0.7 mM), EDTA (0.25 mM), glycerol (25%)] for 30 min at 4° C., and then centrifuged at 15000 g for 15 min at 4° C.
The complexes described here were specifically designed to release either VPA of PhB inside the cells in the hope that they will inhibit HDAC activity paving the way for more efficient DNA platination. Thus, in addition to measuring the levels of DNA platination, we also measured the ability of these pro-drugs to inhibit HDAC activity in cells. […] For comparison purposes, the HDAC inhibitory effect determined by tested complexes was also assayed in isolated nuclei of MCF-7 treated cells (FIG. 3B).
The HDAC activity was determined by the Fluor de Lys® Fluorescent Cellular Activity Assay (Enzo Life Sciences).
Also, MCF-7 cells were incubated for 24 h with increasing concentrations of compounds I-VIII and their HDAC activity was determined. The IC50 values for the inhibition of HDAC activity in the cells are depicted in FIG. 3C.

A2780 cells = assay: MTT cytotoxicity assay, A2780; type: cell-based, human; conditions: for IC50: A2780, 72 h exposure, MTT, read-out: IC50 (median growth inhibitory concentration)
Description: as §4, §2, §5

A498 cells = assay: MTT cytotoxicity assay, A498; type: cell-based, human; conditions: A498, 72 h exposure, read-out: IC50 (median growth inhibitory concentration)
Description: as §4, §2, §5

A549 cells = assay: MTT cytotoxicity assay, A549; type: cell-based, human; conditions: for IC50: A549, 72 h exposure, MTT, read-out: IC50 (median growth inhibitory concentration)
Description: as §1, §2, §3

A375 cells = assay: MTT cytotoxicity assay, A375; type: cell-based, human; conditions: A375, 72 h exposure, MTT (Table 1); read-out: IC50 (median growth inhibitory concentration)
Description: (§6) Cisplatin (CDDP) and oxaliplatin (OXP) were dissolved just before the experiment in a 0.9% NaCl solution. […]
as §5
(§7) MTT assay. […] Triplicate cultures were established for each treatment.
(§8) The two dimers, 3a and 3b, as well as compounds 1a and 2a were screened against six human cancer cell lines representative of lung (H157), colon (HCT-15), cervical (A431), ovarian (2008) and pancreatic (PSN1) cancers, along with melanoma (A375). Cytotoxicity was evaluated by means of the MTT test after 72 h of treatment and the in vitro antitumor potential of newly synthesized derivatives was compared to that of the reference metallo-drugs CDDP and OXP.

MCF-7 cells [4] = assay: Nuclear DNA fragmentation ELISA, MCF-7; type: cell-based, human; conditions: MCF-7, 24 h, IC50 concentrations
Source text: FIGS. 4A-4C describe: FIG. 4A—Nuclear DNA fragmentation. […] Quantitative estimation of DNA fragmentation was obtained with an ELISA test. Data are the means of five independent experiments. Error bars indicate SD. […] FIG. 4C—Caspase activity. […] Data are the means of at least three independent experiments. Error bars indicate SD.
To gain more insights into the mode of action of newly synthesized Pt(IV) derivatives, compounds 1 and 6 were chosen for further experiments. In particular, their capacity to induce apoptosis against human breast MCF-7 cells treated with equitoxic concentrations (IC50 values) of these drugs was evaluated and compared. Nuclear DNA fragmentation and apoptosome complex formation are critical steps in the apoptotic process. […] Apoptotic cell death induction was confirmed through a Hoechst 33342 staining.

PC3 cells = assay: MTT cytotoxicity assay, PC3; type: cell-based, human; conditions: PC3, 72 h exposure, read-out: IC50 (median growth inhibitory concentration)
Description: as §1, §2, §3

nine cancer cell lines = assay: MTT cytotoxicity, over the nine cancer cell lines; conditions: for average fold more potent than cisplatin: average over cell lines
HCT-15 cells = assay: MTT cytotoxicity assay, HCT-15; type: cell-based, human; conditions: for IC50: HCT-15, 72 h exposure, MTT (Table 1), read-out: IC50 (median growth inhibitory concentration)
Description: as §6, §5, §7, §8

[5] = octanol/water partition, shake-flask method; type: physicochemical
Description: To quantify the hydrophobicity of the platinum complexes, partition coefficients (log P) values for octanol/water partition were measured using the shake-flask method.

[6] = daily dose 20 mg kg^-1 orally, day 7-14, LLC in C57BL mice
[7] = read-out: average IC50 values for the nine cancer cell lines, mean over nine cell lines, 72 h MTT

| SMILES | times more effective/potent than cisplatin (MCF-7 cells [2]) | IC50 (MCF-7 cells [2]) [nM] | IC50 (A2780cisR cells; A2780cisR) [nM] | times more effective/potent than cisplatin (BxPC3 cells) [fold] | IC50 (BxPC3 cells) [nM] | IC50 for cellular inhibition of HDAC activity (in words) [3] | inhibition of HDAC activity [3] | IC50 (A2780 cells) [nM] | IC50 (A498 cells) [nM] | IC50 (A549 cells) [nM] | IC50 (A375 cells) [nM] | times higher induction of nucleosome formation compared with cisplatin (MCF-7 cells [4]) [fold] | IC50 (PC3 cells) [nM] | IC50 (nine cancer cell lines; [7]) [nM] | IC50 (HCT-15 cells) [nM] | also measured |
| --- | --- | --- | --- | --- | --- | --- | --- | --- | --- | --- | --- | --- | --- | --- | --- | --- |
| CCCC(CCC)C(=O)[O][Pt]([Cl])([Cl])[O]C(=O)C(CCC)CCC.N.N [I, Ctc-Pt(NH3)2(C8H15O2)2Cl2]] | about 19 fold | 910 ± 300 | 300 ± 100 | ~10 | 1130 ± 140 | highest inhibitory effect | ~65% | 250 ± 90 | 2430 ± 720 | 1120 ± 320 | 1250 ± 250 | 1.5 | 2130 ± 450 | 1150 | 810 ± 120 | Average tumor weight (mean ± SD, g) [1, 6]: 0.179 ± 0.07 g; Inhibition of tumor growth (%) [1, 6]: 68.21%; fold more potent/effective than cisplatin (A2780cisR cells; A2780cisR): 46 fold; resistance factor (A2780cisR cells; ratio IC50 resistant (A2780cisR) / sensitive (A2780) cells): 1.2; fold more potent than cisplatin (A2780 cells; A2780): 11 fold; fold more potent than the mono-VPA monoacetato analog (nine cancer cell lines; average of the nine cell lines): 4.6 fold; average fold more potent than cisplatin (nine cancer cell lines): 8 fold; times more effective than cisplatin (HCT-15 cells; HCT-15): ~14 fold |
| [NH2][Pt]([NH2])([Cl])([Cl])([O]C(=O)CCCc1ccccc1)[O]C(=O)CCCc1ccccc1 [Compound VI, ctc-[Pt(NH3)2(C10H11O2)2Cl2]] | ~100 fold | 180 ± 30 | 120 | ~60 | 190 ± 10 | highest inhibitory effect | approximately 70% | 140 | 430 ± 20 | 170 ± 40 | 160 ± 20 | 2 | 410 ± 60 | 230 | 310 ± 40 | in vivo efficacy by oral administration (in words) ([1]; oral vs cisplatin ip): nearly as effective in this model as cisplatin; Log P [5]: −0.73 ± 0.05; fold more potent than cisplatin (A549 cells; A549): ~50 fold; average fold more potent than cisplatin (nine cancer cell lines; listed as Ctc-[Pt(NH3)2(PhB)2Cl2]): 50 fold; average fold more potent than cisplatin (nine cancer cell lines; listed as ctc-[Pt(NH3)2(PhB)2Cl2]): about 24 fold; fold improvement in potency on replacing both VPA ligands with PhB (VI vs I) (nine cancer cell lines; on the average): ~5 fold; fold more potent than the mono-PhB monoacetate complex (nine cancer cell lines; range over cell lines): 4.6-53 fold; IC50 (nine cancer cell lines; read-out: range of IC50 values over the cell lines, lowest-highest over nine cell lines): 120 to 430 nM |
